What follows are compounds tested against T1, mutant integrin CD11bE320A/CD18 (Homo sapiens, UniProt P11215, E336A) (assay: HTS cell adhesion assay, K562 E320A cells on immobilized fibrinogen). Conditions: Table 3, adhesion to fibrinogen, five point dose-response.
T1 construct: expressed in transfected cells; host or cells: K562 (ATCC)
Format: cell-based
Method: K562 cells stably expressing CD11c/CD18 (K562 CD11c/CD18) were generated similarly. […] K562 cells stably transfected with mutant integrin CD11bE320A/CD18 (K562 E320A) were generated according to literature protocols. All cell lines were maintained in Iscove's Modified Dulbecco's Medium (IMDM) supplemented with 10% heat-inactivated fetal bovine serum, 50 IU/mL penicillin and streptomycin and 0.5 mg/mL G418.
Cell adhesion assays with immobilized ligands were performed using the general protocol previously described and as illustrated in FIG. 1 [33]. Assays with all different K562 cell lines (K562, K562 CD11b/CD18, K562 CD11c/CD18 and K562 E320A) were performed in an identical fashion. Briefly, 384-well microplates (Corning 3700) were coated with 15 μg/mL fibrinogen (Fg) ligand in PBS^++ overnight at 4° C. At the same time, anti-CD18 (IB4) mAb was also coated. Subsequently, the coated wells were washed with 1% nonfat milk in TBS at room temperature for 1 hour. Next, the wells were washed 3 times with TBS, and the coated microplates were used in the HTS assays.
K562 CD11b/CD18, K562 CD11bE320A/CD18 and K562 CD11c/CD18 cells were washed with TBS, and cells were transferred to the Fg-coated wells of microplates in the assay buffer (Ca^2+ and Mg^2+ for physiological condition, Mn^2+ as the Positive control). A 1 μL aliquot of the compounds were transferred to each washed well with multichannel pipet from the 384-well plates.
The assay plates were incubated at 37° C. in the presence of small-molecule compounds for 30 min. To dislodge the non-adherent cell, the assay plates were gently inverted and kept in inverted position for 20 min at room temperature.
The cells were fixed with 37% formaldehyde in a small volume and the plates were kept inverted for 1 h. Upon the fixation, the solutions in the well were discarded. Next, the cells were fluorescently labeled with DAPI (0.5 μM final in TBS with 0.1% Triton X-100) and the quantitated with “Opera High Content Screening System” (Perkin Elmer).
Cell-adhesion under positive and negative control conditions was used to define the activity scale; signal corresponding to the number of non-small molecule treated cells adherent in activating buffer condition (in the presence of Mn^2+ ions as agonist, PC) was considered maximum (100% binding) and the signal corresponding to the number of non-small molecule treated cells adherent in basal buffer condition (in the presence of 1 mM each of Ca^2+ and Mg^2+, NC) was considered minimum (0% binding).

T1 sequence (P11215 17-1152 E336A): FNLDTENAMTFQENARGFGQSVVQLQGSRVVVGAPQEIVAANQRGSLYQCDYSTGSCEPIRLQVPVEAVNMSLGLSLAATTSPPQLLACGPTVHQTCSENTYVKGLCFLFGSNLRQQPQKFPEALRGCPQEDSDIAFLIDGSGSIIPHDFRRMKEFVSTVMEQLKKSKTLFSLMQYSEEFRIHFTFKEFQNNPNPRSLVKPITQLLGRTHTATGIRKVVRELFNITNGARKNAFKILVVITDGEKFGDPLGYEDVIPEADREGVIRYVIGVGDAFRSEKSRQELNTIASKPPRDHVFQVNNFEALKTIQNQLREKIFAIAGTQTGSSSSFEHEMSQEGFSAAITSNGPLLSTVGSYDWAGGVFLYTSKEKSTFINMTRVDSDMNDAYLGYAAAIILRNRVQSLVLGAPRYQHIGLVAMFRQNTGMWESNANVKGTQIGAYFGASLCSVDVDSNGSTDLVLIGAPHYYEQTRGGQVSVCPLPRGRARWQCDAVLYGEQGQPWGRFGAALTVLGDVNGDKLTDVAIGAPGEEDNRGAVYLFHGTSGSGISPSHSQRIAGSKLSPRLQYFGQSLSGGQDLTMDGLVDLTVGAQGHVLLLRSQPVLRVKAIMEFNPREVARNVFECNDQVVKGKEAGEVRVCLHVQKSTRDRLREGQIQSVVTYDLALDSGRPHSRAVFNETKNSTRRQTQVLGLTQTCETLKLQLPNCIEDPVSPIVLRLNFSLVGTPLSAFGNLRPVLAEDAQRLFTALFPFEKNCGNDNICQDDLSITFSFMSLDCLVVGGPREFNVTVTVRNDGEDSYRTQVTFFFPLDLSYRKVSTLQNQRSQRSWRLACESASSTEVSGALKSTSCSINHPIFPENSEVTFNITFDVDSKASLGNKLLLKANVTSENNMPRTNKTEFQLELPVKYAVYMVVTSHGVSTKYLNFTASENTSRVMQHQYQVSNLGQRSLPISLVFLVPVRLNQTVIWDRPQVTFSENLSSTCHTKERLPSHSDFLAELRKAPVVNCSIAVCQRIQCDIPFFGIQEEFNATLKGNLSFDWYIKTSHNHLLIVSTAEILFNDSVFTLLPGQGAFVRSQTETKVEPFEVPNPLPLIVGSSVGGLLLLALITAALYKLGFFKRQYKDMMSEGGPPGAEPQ
T1 sequence (P05107 23-769 partner): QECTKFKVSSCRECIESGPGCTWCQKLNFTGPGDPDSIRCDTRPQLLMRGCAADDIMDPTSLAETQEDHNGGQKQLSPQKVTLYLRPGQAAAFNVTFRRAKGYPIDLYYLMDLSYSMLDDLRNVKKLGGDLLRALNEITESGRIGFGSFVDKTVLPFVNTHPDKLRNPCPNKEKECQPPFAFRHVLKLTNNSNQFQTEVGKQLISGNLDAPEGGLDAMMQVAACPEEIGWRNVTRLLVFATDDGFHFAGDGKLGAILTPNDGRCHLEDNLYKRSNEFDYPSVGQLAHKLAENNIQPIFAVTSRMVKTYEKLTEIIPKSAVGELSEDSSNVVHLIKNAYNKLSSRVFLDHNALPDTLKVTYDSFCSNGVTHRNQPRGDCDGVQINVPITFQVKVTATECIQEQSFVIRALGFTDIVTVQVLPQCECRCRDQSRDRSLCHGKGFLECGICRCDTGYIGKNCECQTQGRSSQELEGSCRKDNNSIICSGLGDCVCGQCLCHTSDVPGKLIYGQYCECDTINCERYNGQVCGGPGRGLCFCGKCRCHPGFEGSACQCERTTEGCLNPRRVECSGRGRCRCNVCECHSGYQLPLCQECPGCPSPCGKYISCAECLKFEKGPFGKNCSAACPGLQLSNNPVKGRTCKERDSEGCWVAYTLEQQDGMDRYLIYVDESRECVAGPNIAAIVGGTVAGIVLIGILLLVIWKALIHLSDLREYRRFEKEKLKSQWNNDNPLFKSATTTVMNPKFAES

SMILES | EC50 | EC50 E320A
CCC(=O)Nc1ccc(C(=O)CSc2nnc(-c3ccccc3F)n2C2CC2)cc1 [Compound 2448744] | 21.8 µM | 
O=C(Nc1nc2c(s1)CCCC2)c1cc(-c2ccncc2)nc2ccccc12 [Compound 2462581] | 12.6 µM | 
O=C(CNC(=O)c1cc2c(s1)CCC2)Nc1ccccc1Br [Compound 2537029] | 8760 µM | 
CCC(=O)Nc1ccc(C(=O)CSc2nc3ccc(C)cc3[nH]2)cc1 [Compound 2549650] | 10.3 µM | 
Cc1sc2nc(CSc3nc4ccccc4c(=O)n3CCCN3CCOCC3)[nH]c(=O)c2c1C [Compound 2566737] | 8.42 µM | 
CC(C)CCn1c(SCC(=O)N2CC(=O)Nc3ccccc32)nc2scc(-c3cccs3)c2c1=O [Compound 2566842] | 7.57 µM | 
Cc1ccc(CN2C(=O)C3CCCN3c3ccc(S(=O)(=O)N4CCOCC4)cc32)cc1 (stereo not shown) [Compound 2766156] | 10.7 µM | 
O=C(CC1Nc2ccccc2NC1=O)Nc1ccccc1 (stereo not shown) [Compound 2829724] | 18.3 µM | 
CCOC(=O)C(Cc1ccccc1)C(=O)Nc1ccc(NC(=O)C(Cc2ccccc2)C(=O)OCC)cc1 (stereo not shown) [Compound 2836867] | 121 µM | 
COc1ccc(NC(=O)CCC(=O)OCC(=O)c2ccc(Oc3ccc([N+](=O)[O-])cc3)cc2)cc1 [Compound 2912337] | 12.4 µM | 
CC1CCc2c(sc(NC(=O)c3ccc(Cn4cc(Br)cn4)o3)c2C(N)=O)C1 (stereo not shown) [Compound 2941732] | 35.6 µM | 
CCn1c(COc2ccc3c(c2)CCCC3)nnc1SCC(=O)Nc1ccc(C(=O)OC)cc1 [Compound 2958500] | 8.94 µM | 
CC(C)CN(C(=O)COC(=O)c1cc2c(s1)CCC2)C1CCS(=O)(=O)C1 (stereo not shown) [Compound 2998734] | 8.02 µM | 
O=C(Cc1coc2cc3c(cc12)CCC3)OCc1cc(=O)n2c(n1)sc1ccccc12 [Compound 3000165] | 9.02 µM | 
CC1=NN(c2nc(-c3ccc(C)cc3)cs2)C(=O)C1N=Nc1ccc2ccccc2c1 (stereo not shown) [Compound 3101589] | 13.4 µM | 
COc1ccccc1N1CSC2=C(C#N)C(c3ccc(SC)cc3)CC(=O)N2C1 (stereo not shown) [Compound 3160888] | 11.4 µM | 
CSCCOC(=O)c1[nH]c2c(c1C)C(=O)CC(c1ccco1)C2 (stereo not shown) [Compound 3162305] | 10.4 µM | 
CCc1nc(SCC(=O)Nc2nnc(CC)s2)c2c(C)c(C)sc2n1 [Compound 3197508] | 8.48 µM | 
Cc1ccc(-c2noc(C3CCCN(S(=O)(=O)c4ccc(S(=O)(=O)N(C)C)cc4)C3)n2)o1 (stereo not shown) [Compound 3226283] | 6.69 µM | 
Cc1cc(C)c(NC(=O)Cn2c(=O)n(Cc3ccco3)c(=O)c3ccccc32)c(C)c1 [Compound 3237376] | 12.2 µM | 
COC(=O)/C(=C1/Oc2cc3c(cc2S1)OCO3)C(F)(F)F [Compound 3237460] | 135 µM | 
COc1cc(NC(=O)c2noc3c2CCC3)c(OC)cc1Cl [Compound 3238190] | 10.5 µM | 

SMILES | EC50 | EC50 E320A
O=C(CSc1nc2ccccc2c2nc3ccccc3n12)NCc1ccco1 [Compound 3238872] | 19.1 µM | 
CCOC(=O)C1CCN(S(=O)(=O)c2ccc(-c3nc4ccccc4s3)s2)CC1 [Compound 3241379] | 12.6 µM | 
COc1ccc(C(=O)Nc2ccc(N3CCN(c4ccc(OC)cc4)CC3)c(C#N)c2)cc1 [Compound 3241486] | 9.08 µM | 
CCS(=O)(=O)N1CCC(C(=O)NCCCN2CCCCCC2)CC1 [Compound 3244583] | 9.7 µM | 
CN(C)c1ccc(NC(=O)Cn2ncn3c(cc4ccccc43)c2=O)cc1 [Compound 3244843] | 46.2 µM | 
COc1ccccc1-c1cc(C(=O)Nc2sc3c(c2C#N)CCC(C)C3)c2ccccc2n1 (stereo not shown) [Compound 3272728] | 10.8 µM | 
O=c1cc(CN2CCN(c3cccc(Cl)c3)CC2)c2cc(O)c(-c3ccccc3)cc2o1 [Compound 3287222] | 16.5 µM | 
C=CCN(CC=C)S(=O)(=O)c1ccc(C(=O)Nc2sc3c(c2C(N)=O)CCCCC3)cc1 [Compound 3395368] | 8.78 µM | 
CCCCn1c(=O)[nH]c(=O)c2c1nc(-c1ccc(-c3ccccc3Br)o1)n2CCOC [Compound 3908086] | 12.2 µM | 
O=C1c2cccc(OCC(=O)N3N=C(c4cccs4)CC3c3ccc(F)cc3)c2CCN1Cc1cccnc1 (stereo not shown) [Compound 4168394] | 8.85 µM | 
COc1ccc(C2=Nc3nc(-c4ccccc4)cn3C(c3ccc(OC)cc3)C2)cc1 (stereo not shown) [Compound 4325421] | 999 µM | 
O=C(NNC(=O)c1cccc(S(=O)(=O)N2CCN(c3ccccc3)CC2)c1)c1ccc(Cl)cc1 [Compound 4412067] | 11.4 µM | 
N#Cc1ccc(CSc2nnc(NC(=O)C3CC(=O)N(c4ccc5c(c4)OCCO5)C3)s2)cc1 (stereo not shown) [Compound 4831224] | 11.1 µM | 
N#Cc1cccc(NC(=O)CSc2ccc3c4c(cccc24)C(=O)c2ccccc2-3)c1 [Compound 4835204] |  | Infinite
COC(=O)c1c(NC(=O)CN2CCC3(O)CCCCC3C2c2ccc(OC)cc2OC)sc(C)c1C (stereo not shown) [Compound 4971819] | 60.2 µM | 
O=C(NCC1OCCc2ccccc21)c1ccc(NC(=O)c2ccc(Cl)cc2)cc1 (stereo not shown) [Compound 5212443] | 13 µM | 
COc1ccc(C2C(C(C)=O)=C(C)N=c3s/c(=C/c4ccc5c(c4)OCO5)c(=O)n32)cc1 (stereo not shown) [Compound 5287341] | 8.98 µM | 
CC(=O)c1cccc(NC(=O)Nc2cc3sccc3n2C)c1 [Compound 5307308] | 18.7 µM | 
CCOC(=O)N1CCC(NC(=O)c2cccc3c2C(=O)N(c2ccc(OC)cc2)C3)CC1 [Compound 5307705] | 9.93 µM | 
CC1CCN(Cc2ccc(NC(=O)C3CCN(c4nnc(-n5cccc5)s4)CC3)cc2)CC1 [Compound 5309189] | 14.2 µM | 
COc1ccc(N(CC(=O)N/N=C/c2ccc(-c3ccc([N+](=O)[O-])cc3)o2)S(=O)(=O)c2ccc(C)cc2)cc1 [Compound 5334631] | 13 µM | 
Cc1ccc(C)c(N(CC(=O)N/N=C/c2ccc(-c3ccc([N+](=O)[O-])cc3)o2)S(=O)(=O)c2ccccc2)c1 [Compound 5334671] | 16.9 µM | 

SMILES | EC50 | EC50 E320A
COc1cc(/C=C2/SC(=S)N(c3ccccc3)C2=O)ccc1Oc1nc(N2CCOCC2)nc(N2CCOCC2)n1 [Compound 5343920] |  | Very Low
O=C(Cn1c2ccccc2c(=O)c2ccccc21)N/N=C/c1ccc(N2CCCC2)c([N+](=O)[O-])c1 [Compound 5347156] | 13.7 µM | 
O=C(N/N=C\c1ccc(-c2ccc([N+](=O)[O-])cc2)o1)c1ccc2c(c1)OCO2 [Compound 5497396] | 11.7 µM | 
COc1ccc(/C=C2/C(=O)N(c3nc4ccccc4s3)N=C2CSc2ccc(Cl)cc2)cc1 [Compound 5727347] | 10.2 µM | 
O=C(NCCN1C(=O)S/C(=C\c2ccccc2)C1=O)c1cc(S(=O)(=O)N2CCOCC2)c(Cl)cc1Cl [Compound 5774232] | 8.84 µM | 
CN(CCC#N)C(=O)COC(=O)c1c2c(nc3ccccc13)/C(=C/c1ccco1)CC2 [Compound 5801934] | 7.85 µM | 
O=C(COC(=O)c1c2c(nc3ccccc13)/C(=C/c1cccc([N+](=O)[O-])c1)CCC2)NC1CCS(=O)(=O)C1 (stereo not shown) [Compound 5950432] | 9.83 µM | 
O=C(N/N=C\C=C\c1ccco1)c1cc(-c2ccc3ccccc3c2)[nH]n1 [Compound 6030986] | 8.1 µM | 
COc1ccccc1CNC(=O)c1ccc2nc3[nH]c4ccccc4c3nc2c1 [Compound 6079611] | 9.05 µM | 
O=C(CSc1nnc2c3ccccc3c3ccccc3c2n1)Nc1ccccc1F [Compound 6402388] | 11.2 µM | 
CCC(C)N1C(=O)/C(=C/c2ccc3c(c2)CCN3CCCCl)C(=O)NC1=S (stereo not shown) [Compound 6513263] | 13.9 µM | 
NC(=S)N/N=C/c1coc2cc(Cl)ccc2c1=O [Compound 6879466] | 171 µM | 
Cc1nc2c(c(=O)n1CCC1=CCCCC1)c1nc3ccccc3nc1n2/N=C/c1ccco1 [Compound 6880170] | 11.3 µM | 
COc1cccc(OCc2cc(/C=N/NC(=O)c3nc(Cl)c(Cl)c(N)c3Cl)ccc2OC)c1 [Compound 6881723] | 7.33 µM | 
COCCNC(=S)N/N=C/c1ccc(OCc2ccc(C(=O)OC)cc2)cc1 [Compound 6892710] | 12.4 µM | 
COc1cccc2sc(Nc3nc(-c4cc5ccccc5oc4=O)cs3)nc12 [Compound 7109922] | 8.76 µM | 
O=C(Cc1cccs1)Nc1nnc(SCc2cccc3ccccc23)s1 [Compound 7191378] | 8.13 µM | 
CC(=O)c1ccc(NC(=O)CSc2ccc(-c3ccc4c(c3)OCO4)nn2)cc1 [Compound 7206282] | 10.7 µM | 
O=C(/C=C/c1ccco1)c1ccc(NC(=O)C23CC4CC(CC(C4)C2)C3)cc1 [Compound 7424594] | 10.3 µM | 
Cc1ccc(-n2c(=O)c(C#N)cc3c(=O)n4cccc(C)c4nc32)cc1 [Compound 9550569] | 8.22 µM | 
